We go through six compounds from patent US20130072427A1, “GPR 119 MODULATORS” (Pfizer Inc., priority 2009, published 2013).

Values joined by “and” are separate entries in the source; they are usually repeats but may differ in a detail not shown here. Equal entries are not always repeated.

Test [1] addresses T1, human GPR119 (Homo sapiens, UniProt Q8TDV5).
T1 construct: host or cells: U2OS
The test is described as follows: Beta-arrestin functional assay (DiscoverX PathHunter U2OS hGPR119 β-arrestin cells). Format: cell-based. Set-up: Emax: dose or concentration left out as unconfirmed. The conditions noted are these: one line per run; for EC50: U2OS hGPR119 β-arrestin cells, 90 minute incubation, read-out: Human B-arrestin Functional EC50; for Emax: U2OS, percent of maximal activity relative to standard GPR119 agonist (WO2005121121) at 10 microM, read-out: Intrinsic Activity* (%) (B-arrestin). How it is done:
GPR119 agonist activity was also determined with a cell-based assay utilizing DiscoverX PathHunter β-arrestin cell assay technology and their U2OS hGPR119 β-arrestin cell line (DiscoverX Cat #93-0356C3). In this assay, agonist activation is determined by measuring agonist-induced interaction of β-arrestin with activated GPR119. A small, 42 amino acid enzyme fragment, called ProLink was appended to the C-terminus of GPR119. Arrestin was fused to the larger enzyme fragment, termed EA (Enzyme Acceptor). Activation of GPR119 stimulates binding of arrestin and forces the complementation of the two enzyme fragments, resulting in formation of a functional β-galactosidase enzyme capable of hydrolyzing substrate and generating a chemiluminescent signal.
Specifically, U2OS hGPR119 β-arrestin cells (DiscoverX 1×10^7/ml) are removed from cryopreservation and diluted in growth medium (Minimum essential medium (MEM; Gibco Cat #11095-080), 10% heat inactivated fetal bovine serum (HIFBS; Sigma Cat #F4135-100), 100 mM sodium pyruvate (Sigma Cat #S8636), 500 microg/mL G418 (Sigma Cat #G8168) and 250 microg/mL Hygromycin B (Invitrogen Cat #10687-010). The cell concentration was adjusted to 1.66×10^5 cells/ml and 30 mls of this suspension was added to a T-175 flask and incubated at 37 degrees Celsius in a humidified environment in 5% carbon dioxide. After 48 hours, the cells were removed from the T-175 flask with enzyme-free cell dissociation buffer (Gibco cat #13151-014), centrifuged at 800×g and then re-suspended in plating medium (Opti-MEM I (Invitrogen/BRL Cat #31985-070) and 2% charcoal dextran treated fetal bovine serum (CD serum; HyClone Cat #SH30068.03). The cell concentration was adjusted to 2.5×10^5 cells/ml with plating medium and 10 microL of this cell suspension (2500 cells) was added to each well of a white Greiner 384-well low volume assay plate (VWR cat #82051-458) and the plates were incubated at 37 degrees Celsius in a humidified environment in 5% carbon dioxide.
After 16 hours (overnight) the assay plates were removed from the incubator and varying concentrations of each compound to be tested (diluted in assay buffer (1×HBSS+CaCl2+MgCl2 (Gibco Cat #14025-092), 20 mM HEPES pH 7.0 (Gibco Cat #15630-080) and 0.1% BSA (Sigma Cat #A9576)) were added to the assay plate wells in a volume of 2.5 microL (final DMSO concentration was 0.5%). After a 90 minute incubation at 37 degrees Celsius in a humidified environment in 5% carbon dioxide, 7.5 microL of Galacton Star β-galactosidase substrate (PathHunter Detection Kit (DiscoveRx Cat #93-0001); prepared as described in the manufacturers assay protocol) was added to each well of the assay plate. The plates were incubated at room temperature and after 60 minutes, changes in the luminescence were read with an Envision 2104 multilabel plate reader at 0.1 seconds per well. EC50 determinations were made from an agonist-response curves analyzed with a curve fitting program using a 4-parameter logistic dose response equation.
T1 sequence (P32121 whole entry partner, one chain of several): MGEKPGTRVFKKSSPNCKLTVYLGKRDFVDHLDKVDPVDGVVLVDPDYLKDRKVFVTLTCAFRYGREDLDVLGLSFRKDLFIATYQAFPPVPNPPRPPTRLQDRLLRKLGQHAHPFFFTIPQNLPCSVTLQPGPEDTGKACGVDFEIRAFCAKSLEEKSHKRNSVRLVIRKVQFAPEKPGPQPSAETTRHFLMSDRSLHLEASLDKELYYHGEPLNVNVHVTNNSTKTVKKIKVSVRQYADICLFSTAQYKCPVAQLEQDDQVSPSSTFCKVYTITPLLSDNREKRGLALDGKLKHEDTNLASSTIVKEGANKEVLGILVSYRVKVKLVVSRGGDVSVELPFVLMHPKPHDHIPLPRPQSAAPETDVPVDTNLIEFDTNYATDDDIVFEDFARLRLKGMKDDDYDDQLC

Test [2] deals with T2, human GPR119 (Homo sapiens, UniProt Q8TDV5).
T2 construct: host or cells: HEK293-CRE beta-lactamase cells
T2 sequence (Q8TDV5 1-335): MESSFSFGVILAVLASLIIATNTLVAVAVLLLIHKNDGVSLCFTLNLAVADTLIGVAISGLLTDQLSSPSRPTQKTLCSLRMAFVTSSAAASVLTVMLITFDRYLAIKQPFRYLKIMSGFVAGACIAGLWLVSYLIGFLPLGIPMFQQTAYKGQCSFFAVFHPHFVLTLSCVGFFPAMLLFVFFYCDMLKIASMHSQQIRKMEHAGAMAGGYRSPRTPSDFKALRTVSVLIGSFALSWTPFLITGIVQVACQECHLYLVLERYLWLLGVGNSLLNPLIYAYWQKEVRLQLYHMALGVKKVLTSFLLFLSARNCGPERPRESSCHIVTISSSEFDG
The test is described as follows: Beta-lactamase functional assay (hGPR119 HEK293-CRE beta-lactamase reporter). It is filed as cell-based. The settings on record: one line per run; for EC50: hGPR119 HEK293-CRE beta-lactamase cells, 16 hours incubation, read-out: Human B-lactamase Functional EC50; for Emax: percent of maximal activity relative to standard GPR119 agonist (WO2005121121) at 10 microM, read-out: Intrinsic Activity* (%) (B-lactamase). How it is done:
The assay for GPR119 agonists utilizes a cell-based (hGPR119 HEK293-CRE beta-lactamase) reporter construct where agonist activation of human GPR119 is coupled to beta-lactamase production via a cyclic AMP response element (CRE). GPR119 activity is then measured utilizing a FRET-enabled beta-lactamase substrate, CCF4-AM (Live Blazer FRET-B/G Loading kit, Invitrogen cat #K1027). Specifically, hGPR119-HEK-CRE-beta-lactamase cells (Invitrogen 2.5×10^7/mL) were removed from liquid nitrogen storage, and diluted in plating medium (Dulbecco's modified Eagle medium high glucose (DMEM; Gibco Cat #11995-065), 10% heat inactivated fetal bovine serum (HIFBS; Sigma Cat #F4135), 1×MEM Nonessential amino acids (Gibco Cat #15630-080), 25 mM HEPES pH 7.0 (Gibco Cat #15630-080), 200 nM potassium clavulanate (Sigma Cat #P3494). The cell concentration was adjusted using cell plating medium and 50 microL of this cell suspension ([…]) was added into each well of a black, clear bottom, poly-d-lysine coated 384-well plate (Greiner Bio-One cat #781946) and incubated at 37 degrees Celsius in a humidified environment containing 5% carbon dioxide. After 4 hours the plating medium was removed and replaced with 40 microL of assay medium (Assay medium is plating medium without potassium clavulanate and HIFBS). Varying concentrations of each compound to be tested was then added in a volume of 10 microL (final DMSO≦0.5%) and the cells were incubated for 16 hours at 37 degrees Celsius in a humidified environment containing 5% carbon dioxide. Plates were removed from the incubator and allowed to equilibrate to room temperature for approximately 15 minutes. 10 microL of 6×CCF4/AM working dye solution (prepared according to instructions in the Live Blazer FRET-B/G Loading kit, Invitrogen cat #K1027) was added per well and incubated at room temperature for 2 hours in the dark. Fluorescence was measured on an EnVision fluorimetric plate reader, excitation 405 nm, emission 460 nm/535 nm. EC50 determinations were made from agonist-response curves analyzed with a curve fitting program using a 4-parameter logistic dose-response equation.

The EC50 is the concentration that produces a half-maximal response. For `Cc1c(O[C@H]2CCN(C(=O)OC3(C)CC3)C[C@H]2F)ncnc1N1Cc2cnn(C)c2C1` (racemic) [Example 7, 1-Methylcyclopropyyl (3,4-cis)-3-fluoro-4-{[5-methyl-6-(1-methyl-4,6-dihydropyrrolo[3,4-c]pyrazol-5(1H)-yl)pyrimidin-4-yl]oxy}piperidine-1-carboxylate (racemic)], on human GPR119 [1], the EC50 worked out at 23 nM and the Emax stood at 77%.
As to `CC(C)OC(=O)N1CCC(Oc2ncnc(N3Cc4cnn(C)c4C3)c2C#N)CC1` [Example 3, Isopropyyl 4-{[5-cyano-6-(1-methyl-4,6-dihydropyrrolo[3,4-c]pyrazol-5(1H)-yl)pyrimidin-4-yl]oxy}piperidine-1-carboxylate], at human GPR119 [2], the EC50 stood at 2050 nM and the Emax was determined as 107%.
`Cc1c(O[C@H]2[C@@H]3COC[C@H]2CN(C(=O)OC(C)(C)C)C3)ncnc1N1Cc2cnn(C)c2C1` [Example 9, tert-Butyl (9-anti)-9-{[5-methyl-6-(1-methyl-4,6-dihydropyrrolo[3,4-c]pyrazol-5(1H)-yl)pyrimidin-4-yl]oxy}-3-oxa-7-azabicyclo[3.3.1]nonane-7-carboxylate]: at human GPR119 [1], the EC50 worked out at 56 nM and the Emax worked out at 70%.
The corresponding values for `Cc1c(O[C@H]2CCN(C(=O)OC(C)(C)C)C[C@H]2F)ncnc1N1Cc2cnn(C)c2C1` (racemic) [Example 6, tert-Butyl (3,4-cis)-3-fluoro-4-{[5-methyl-6-(1-methyl-4,6-dihydropyrrolo[3,4-c]pyrazol-5(1H)-yl)pyrimidin-4-yl]oxy}piperidine-1-carboxylate (racemic)] are 19 nM and 67%.
Regarding `Cc1c(O[C@H]2CCN(C(=O)OC(C)(C)C)C[C@@H]2F)ncnc1N1Cc2cnn(C)c2C1` (racemic) [Example 8, tert-Butyl (3,4-trans)-3-fluoro-4-{[5-methyl-6-(1-methyl-4,6-dihydropyrrolo[3,4-c]pyrazol-5(1H)-yl)pyrimidin-4-yl]oxy}piperidine-1-carboxylate (racemic)], on human GPR119 [1], the EC50 is 81 nM and 754 nM.
With `Cc1c(OC2CCN(C(=O)OC(C)C)CC2)ncnc1N1Cc2cnn(C)c2C1` [Example 2, Isopropyyl 4-{[5-methyl-6-(1-methyl-4,6-dihydropyrrolo[3,4-c]pyrazol-5(1H)-yl)pyrimidin-4-yl]oxy}piperidine-1-carboxylate], on human GPR119 [2], the EC50 turned out to be 662 nM and the Emax stood at 103%.
